From patent US20110039763A1, “TARGETED ANTIMICROBIAL MOIETIES” (C3 JIAN, INC., priority 2009, published 2011)
Entries after “also recorded” stand apart in the source; their conditions may differ.

Test system: microorganisms
Assay: Targeting peptide binding to target microorganisms (Tables 3, 10, 12)
Details: preferably 1x PBS; for Target(s) (microorganism bound by the targeting peptide): peptide binding in aqueous buffers that varied with peptide solubility; for Target(s): microorganism(s) the targeting peptide binds, binding in aqueous buffers that varied with peptide solubility

| Substance | Target(s) (microorganism bound by the targeting peptide) | Target(s) |
| --- | --- | --- |
| 1T-104 (RAVAAHLQGRHHGHQVRRQRHGQR; Peptide with targeting and/or antimicrobial activity) | S. mitis | – |
| 1T-105 (GEGLPPPVLHLPPPRMSGR; Peptide with targeting and/or antimicrobial activity) | S. epidermidis; also recorded: S. gordonii; also recorded: S. mitis; also recorded: S. mutans; also recorded: S. oralis | – |
| 1T-106 (DALRRSRSQGRRHR; Peptide with targeting and/or antimicrobial activity) | S. gordonii; also recorded: S. mitis; also recorded: S. mutans; also recorded: S. oralis; also recorded: S. salivarious | – |
| 1T-107 (SPVPRFTAVGGVSRGSP; Peptide with targeting and/or antimicrobial activity) | A. naeslundii; also recorded: S. epidermidis; also recorded: S. gordonii; also recorded: S. mitis; also recorded: S. mutans; also recorded: S. oralis; also recorded: S. salivarious; also recorded: S. sanguinis | – |
| 1T-108 (WGPLGPERPLW; Peptide with targeting and/or antimicrobial activity) | S. gordonii; also recorded: S. mitis; also recorded: S. mutans; also recorded: S. oralis; also recorded: S. salivarious; also recorded: S. sanguinis | – |
| 1T-109 (VTTNVRQGAGS; Peptide with targeting and/or antimicrobial activity) | A. naeslundii; also recorded: S. epidermidis; also recorded: S. gordonii; also recorded: S. mitis; also recorded: S. mutans; also recorded: S. oralis; also recorded: S. salivarious; also recorded: S. sanguinis | – |
| 1T-110 (LAAKTAVCVGRAFM; Peptide with targeting and/or antimicrobial activity) | A. naeslundii; also recorded: P. gingivalis; also recorded: S. epidermidis; also recorded: S. gordonii; also recorded: S. mitis; also recorded: S. mutans; also recorded: S. oralis; also recorded: S. sanguinis | – |
| 1T-112 (SDNDGKLILGTSQ; Peptide with targeting and/or antimicrobial activity) | S. gordonii | – |
| 1T-113 (HGAHQRTGQRLHHHRGRTVSGCRQNPVAGVDPDEHR; Peptide with targeting and/or antimicrobial activity) | S. mitis | – |
| 1T-114 (RQAPGPGLVTITAACSAPGSRSR; Peptide with targeting and/or antimicrobial activity) | A. naeslundii; also recorded: P. gingivalis; also recorded: S. epidermidis; also recorded: S. gordonii; also recorded: S. mitis; also recorded: S. mutans; also recorded: S. oralis; also recorded: S. sanguinis | – |
| 1T-117 (GPGVVGPAPFSRLPAHALNL; Peptide with targeting and/or antimicrobial activity) | S. mutans | – |
| 1T-119 (SPATQKAPTRAQPSRAPVQDCGDGRPTAAPDDVERLSPR; Peptide with targeting and/or antimicrobial activity) | S. gordonii; also recorded: S. mitis; also recorded: S. mutans; also recorded: S. oralis | – |
| 1T-121 (FAKETGFGIGGAQEGWWIIADIYGPNPF; Peptide with targeting and/or antimicrobial activity) | S. gordonii; also recorded: S. mitis; also recorded: S. mutans; also recorded: S. oralis; also recorded: S. salivarious; also recorded: S. sanguinis | – |
| 1T-122 (GAIPDPVTHRVDWEEDHQTRPSR; Peptide with targeting and/or antimicrobial activity) | S. mitis | – |
| 1T-123 (LVRRNAVAGRSDGLAGAEQLDLVRLQGVL; Peptide with targeting and/or antimicrobial activity) | S. gordonii | – |
| 1T-124 (LFDERNKIA; Peptide with targeting and/or antimicrobial activity) | S. mitis; also recorded: S. mutans; also recorded: S. oralis | – |
| 1T-125 (DAITGGNPPLSDTDGLRP; Peptide with targeting and/or antimicrobial activity) | S. epidermidis; also recorded: S. gordonii; also recorded: S. mutans; also recorded: S. oralis | – |
| 1T-126 (QGLARPVLRRIPL; Peptide with targeting and/or antimicrobial activity) | S. gordonii; also recorded: S. mitis; also recorded: S. mutans | – |
| 1T-139 (AVAGAAVGALLGNDARSTAVGAAIGGALGAGAGELTKNK; Peptide with targeting and/or antimicrobial activity) | A. naeslundii; also recorded: S. gordonii; also recorded: S. mitis; also recorded: S. mutans; also recorded: S. oralis | – |
| 1T-141 (KKFIILLFILVQGLIFSATKTLSDIIAL; Peptide with targeting and/or antimicrobial activity) | F. nucleatum; also recorded: P. gingivalis; also recorded: S. epidermidis; also recorded: S. gordonii; also recorded: S. mitis; also recorded: S. mutans; also recorded: S. oralis; also recorded: S. sanguinis | – |
| 1T-145 (VEAGKRNISLENIEKISKGLGISISELFKYIEEGEDKIG; Peptide with targeting and/or antimicrobial activity) | S. mitis; also recorded: S. mutans; also recorded: S. oralis | – |

| Substance | Target(s) (microorganism bound by the targeting peptide) | Target(s) |
| --- | --- | --- |
| 1T-154 (YFSFLEIVGMARR; Peptide with targeting and/or antimicrobial activity) | P. gingivalis | – |
| 1T-159 (IFSLHHFALICSEMGTFAVSKRAKYKWEVL; Peptide with targeting and/or antimicrobial activity) | P. gingivalis | – |
| 1T-170 (AYGKVFSMDIMLSENDKLIVLRISHHSAWH; Peptide with targeting and/or antimicrobial activity) | P. gingivalis | – |
| 1T-177 (GTNVPTQILGYSREERFDYEPAPEQR; Peptide with targeting and/or antimicrobial activity) | P. gingivalis; also recorded: S. gordonii; also recorded: S. mitis; also recorded: S. mutans; also recorded: S. oralis; also recorded: S. salivarious; also recorded: S. sanguinis | – |
| 1T-185 (HYHFLLEFGFHKGDYLE; Peptide with targeting and/or antimicrobial activity) | A. naeslundii; also recorded: F. nucleatum; also recorded: P. gingivalis; also recorded: T. denticola; also recorded: S. gordonii | S. mitis; also recorded: S. mutans; also recorded: S. oralis; also recorded: S. salivarious; also recorded: S. sanguinis |
| 1T-188 (HRKDVYKK; Peptide with targeting and/or antimicrobial activity) | – | S. sanguinis |
| 1T-192 (ILVLLALQVELDSKFQY; Peptide with targeting and/or antimicrobial activity) | – | S. sanguinis |
| 1T-193 (LMIFDKHANLKYKYGNRSFGVEAIM; Peptide with targeting and/or antimicrobial activity) | – | S. sanguinis |
| 1T-195 (AASGFTYCASNGVWHPY; Peptide with targeting and/or antimicrobial activity) | – | S. mutans |
| 1T-196 (KPEKEKLDTNTLMKVVNKALSLFDRLLIKFGA; Peptide with targeting and/or antimicrobial activity) | – | F. nucleatum; also recorded: S. sanguinis |
| 1T-198 (MPVSKKRYMLSSAYATALGICYGQVATDEKESEITAIPDLLDYLSVEEYLL; Peptide with targeting and/or antimicrobial activity) | – | P. gingivalis; also recorded: S. epidermidis; also recorded: S. gordonii; also recorded: S. mitis; also recorded: S. mutans; also recorded: S. oralis; also recorded: S. sanguinis |
| 1T-199 (RAGRIKKLSQKEAEPFEN; Peptide with targeting and/or antimicrobial activity) | – | S. sanguinis |
| 1T-201 (KRKHENVIVAEEMRVIKN; Peptide with targeting and/or antimicrobial activity) | – | S. sanguinis |
| 1T-207 (SPLEKYGTGSMTALTFLLGCCLLVLSKKSR; Peptide with targeting and/or antimicrobial activity) | – | F. nucleatum; also recorded: S. sanguinis |
| 1T-215 (VCFKDISVFLSPFRGQEVLFCGKAKHSLIYVIGT; Peptide with targeting and/or antimicrobial activity) | – | S. sanguinis |
| 1T-216 (FFLNVIAIRIPHF; Peptide with targeting and/or antimicrobial activity) | – | S. sanguinis |
| 1T-217 (MLSNVLSRSVVSPNVDIPNSMVILSPLLISISNYH; Peptide with targeting and/or antimicrobial activity) | – | F. nucleatum; also recorded: S. sanguinis |
| 1T-218 (KLIFAALGLVFLLIGLRDSRSK; Peptide with targeting and/or antimicrobial activity) | – | F. nucleatum; also recorded: S. sanguinis |
| 1T-219 (RNINVSATFITEKSLV; Peptide with targeting and/or antimicrobial activity) | – | S. sanguinis |
| 1T-222 (RIEASLISAIMFSMFNAIVKFLQK; Peptide with targeting and/or antimicrobial activity) | – | F. nucleatum; also recorded: S. sanguinis |
| 1T-237 (EDPVPNHFTLRRNKKEKPSKS; Peptide with targeting and/or antimicrobial activity) | – | S. sanguinis |
